This assay concerns c-MYC expression in CA46 cells. As to the kind of experiment: c-MYC expression in CA46 Burkitt's Lymphoma line. It is filed as cell-based, human. As to conditions: CA46 line lacking G4 control. The source says: To confirm a G4 specific mechanism of action in cells, the CA46 Burkitt's Lymphoma line was used in an exon-specific assay, as previously reported (Boddupally, et al., J Med Chem 2012, 55, 6076). For most cell lines, 85-90% of c-Myc expression is controlled by the G4 located prior to exons 1 and 2 in the promoter. Furthermore, expression predominantly occurs following exon 2, due to a thousand-fold increase in transcription from this allele (Brown, et al., J Biol Chem 2011, 286, 41018). The CA46 Burkitt's Lymphoma cell line is an exception to this trend due to the existence of a chromosome (8:14) (Pelicci, et al., Proc Natl Acad Sci USA 1986, 83, 2984) translocation between exons 1 and 2, leaving exon 1 under G4 control. As a result, c-Myc expression from exon 2 is G4 independent (FIG. 3B). This renders the overall cell line resistant to G4-mediated c-Myc inhibition at the RNA and protein level, and proliferation should be uninhibited by G4-stabilizing agents. […]
Cell pellets/tissue were homogenized and lysed in RIPA buffer on ice for 1 h. Protein was quantitated by BCA, and equal protein was loaded onto 4-12% Bis-Tris Gels (Novex), electrophoresed at 150 V for 75 min to obtain sufficient separation, and transferred via the iBlot system (Life Technologies). […]

The values below come from US11014902B2, “MYC G-quadruplex stabilizing small molecules and their use” (The United States of America, as represented by the …, priority 2015, dated 2021).

“Also recorded” adds a separate entry of the source.

With `Cc1ccc(NC(=O)c2c(C)oc3ccc(O)c(CN4CCCCCC4)c23)cc1` [Compound 1], the “c-MYC expression / protein translation” value is “resistant to inhibition of c-Myc protein translation; also recorded: negligible changes”.
